row,SMILES,melting point
1,CC(C)CC(S)C(=O)NC1(C(=O)NC(Cc2ccc(-c3ccc(-c4cccc5ccccc45)cc3)cc2)C(=O)O)CCCC1 (stereo not given),187 to 189 °C
2,COC1OCC[C@@H]1NC(=O)[C@H](CC(C)C)NC(=O)[C@H](CC(C)C)NC(=O)[C@H](CC(C)C)NC(=O)OCc1ccccc1 (stereo not given in full),210 to 212 °C
3,CC(=O)c1ccc(NS(C)(=O)=O)c(Oc2ccc(F)cc2)c1,95 to 96 °C
4,O=C(CCCl)N1Cc2cccc3[nH]cc(c23)C1,158 to 161 °C
5,Nc1cccnc1Nc1ccccc1C(=O)c1ccccc1,91 to 93 °C
6,Cc1cc(Cl)cc(Cl)c1CNc1c(N[C@H](C)C(C)(C)C)c(=O)c1=O,> 300 °C
7,CCOC(=O)c1cn(CCF)c2nc(N3CCN(C(C)=O)CC3)c(F)cc2c1=O,183 to 185 °C
8,Cc1cccc(C(=O)CC2CCCN(C)C2)c1 (stereo not given),92 to 94 °C
9,O=c1cccc(-c2ccc(Cl)cc2)[nH]1,200 to 203 °C
10,Nc1nc(-c2cc(Cl)ccc2Cl)nc(N2CC(CO)C2)n1,224 to 226 °C
11,OCc1ccc(-c2ccc(OC3SCC(O)C(O)C3O)cn2)cc1 (stereo not given),215 °C
12,COc1ccc(Cc2nc(N3CCOCC3)c3c(C)c(C#N)sc3n2)cc1OC,67 to 70 °C
13,Cc1nc(N)c2nc(CONC(C)C)n(CCCCNC(=O)c3ccccc3)c2c1C,161 to 162 °C
14,Cc1c2n(c3ccccc13)C(=O)N(C(C)c1ncn(C(c3ccccc3)(c3ccccc3)c3ccccc3)c1C)CC2 (stereo not given),71 to 76 °C
15,Cc1ccc(C=C(C#N)S(=O)(=O)c2ccccc2)cc1,145 to 147 °C
16,CCN1CCCC1CNC(=O)c1cc(NS(C)(=O)=O)c(C)cc1OC (stereo not given),132 to 133 °C
17,C/C=C/Cn1nc(C(=O)c2cccc(O)c2)c2ccccc21,75 to 78 °C
18,CC(=O)OC1CSC(Oc2cc(-c3ccc(F)nc3)cnc2Cl)C(OC(C)=O)C1OC(C)=O (stereo not given),70 to 90 °C
19,CC(=O)CC(C)c1ccc(-c2ccccc2)cc1 (stereo not given),67 °C
20,OC1(c2ccc(F)c(F)c2)CCC2(CC1)OCCO2,118 to 120 °C
21,CC=Cn1c2ccccc2c2ccccc21,57 to 58 °C
22,CCOC(=O)c1nnc2n1-c1ccccc1C(c1ccccc1Cl)=NC2,235 to 237 °C
23,CC1Cc2cc(Cl)c(Cl)cc2C(c2ccc([N+](=O)[O-])cc2)O1 (stereo not given),189 to 191 °C
24,N#CC(CCN1CCC(c2ccccc2)CC1)(c1ccccc1)c1ccccc1,88 to 89.5 °C

row,SMILES,melting point
1,COc1ccc(Br)c(O)c1O,122 to 124 °C
2,COc1ccc(-c2ccc(=O)n(Cc3nc(-c4ccc(F)cc4)no3)c2)cc1,123 °C
3,CCOCCOc1ccc(C(C)C)c(NC(=O)CN2CCN(CCCSc3nc4ccccc4o3)CC2)c1C(C)C,99 to 100 °C
4,CCCn1c(=O)c2[nH]c(C)nc2n(CCC)c1=O,202 to 203 °C
5,CC(C)C(=CC(N)C(=O)O)CP(=O)(O)O (stereo not given),201 °C
6,CCOC(=O)C(=Cc1ccccn1)C(=O)C(C)C,53 to 55 °C
7,O=c1oc(-c2cccc(OCc3ccccc3)c2)cc(O)c1SCCc1ccccc1,126 to 127 °C
8,CCc1nnc(-c2ccc(NC)cc2)n1-c1ccc(OC)cc1,198 °C
9,COC(=O)c1cc(-c2ccc(F)cc2)oc1C,96 to 97 °C
10,O=C(NCc1ccc(Cl)cc1)c1cc(F)c2cccnc2c1O,184 to 185 °C
11,C=CCN1C2CCC1C1CCC2N1C(c1ccc(C(=O)N2CCCC2)cc1)c1cccc(O)c1 (stereo not given),156 to 158 °C
12,CCCCC=Cc1cc2ccccc2[nH]1,70 to 72 °C
13,CC(/C=C/c1ccccc1)=C\C(=O)NCCCCCC(=O)NO,147 to 149 °C
14,CC(C)(C)c1cc2c(c(C(C)(C)C)c1)OC(=O)C2c1ccccc1 (stereo not given),116 to 119 °C
15,CC(C)CCNC(=O)C(c1ccccc1)c1ccccc1,128 °C
16,CC(=O)OCCc1ccccc1S(N)(=O)=O,116 to 118 °C
17,CC(c1ccc(-c2ccccc2)c(F)c1)c1csc(NC(=O)c2ccccc2)n1 (stereo not given),147 to 148 °C
18,CCCCN(CCCC)c1ccc(C=CC2=C(C#N)C(=C(C#N)C#N)OC2(C)C)c(OC)c1,222 to 226 °C
19,CCOC(=O)c1cc(SCc2ccccc2)c(Sc2ccccc2)c(S(N)(=O)=O)c1,151 to 152 °C
20,COc1cc2ncnc(N3CCN(C(=S)Nc4cccc(NC(C)=O)c4)CC3)c2cc1OC,207 to 208 °C
21,CCc1cc2c(s1)-n1nc(C(=O)O)nc1CN=C2c1ccccc1Cl,134 to 136 °C
22,CC(C)N(C(=O)CN1C(=O)CC(=O)N(c2ccccc2)c2ccccc21)c1ccc(C(F)(F)F)cc1,186 to 188 °C
23,O=C(c1ccccc1)c1cc2ccncc2n1S(=O)(=O)c1ccccc1,145 to 146 °C
24,CC(CS)C(=O)N1C(C(=O)O)CC2CCCCC21 (stereo not given),141 to 142 °C

row,SMILES,melting point
1,Nc1cc(CC(=O)O)cc2c1NC(C(F)(F)F)CC2 (stereo not given),180 to 181 °C
2,C[C@@H](N[C@@H](Cc1c[nH]cn1)C(=O)O)[C@H](NC(=O)[C@@H](N)CCCCN)C(=O)O,175 to 179 °C
3,CC1c2ccccc2CCC1CC#N (stereo not given),< 20 °C
4,CC(=O)N1CCC(=O)NCc2cc([N+](=O)[O-])ccc21,253 to 256 °C
5,O=c1oc(=O)n(-c2cccc(F)c2)c2ncccc12,164 to 166 °C
6,N#Cc1cccc(COc2ccc3ccccc3c2)c1,60 to 61 °C
7,COC(=O)C1(CN2CCC(Cc3ccc(F)cc3)CC2)CC(c2ccc3[nH]c(=O)oc3c2)=NO1 (stereo not given),146 to 155 °C
8,O=C(Nc1ccc(-n2nc(C(F)(F)F)cc2OC(F)F)cc1)c1ccncc1,154 to 155 °C
9,COc1ccc(-c2cc(=O)c3ccc(OCC(O)CN4CCN(c5ccccc5)CC4)cc3o2)cc1OC (stereo not given),191 to 193 °C
10,COc1ccccc1-c1cc(C(=O)O)cc(-n2cnnn2)c1,214 to 215 °C
11,Cc1cc(-n2cncn2)c2cccc(OCc3c(Cl)ccc(S(=O)(=O)N4CCC[C@H]4C(=O)NCC4CCN(CC(=O)OC(C)(C)C)CC4)c3Cl)c2n1,50 °C
12,COCCc1nc2c(N)nc3cc(-c4cncc(CO)c4)ccc3c2n1CC(C)C,202 to 204 °C
13,CCCOc1ccc(S(=O)(=O)N2CCN(CC)CC2)cc1-c1nc2cc3ncn(Cc4ccccc4Cl)c3cc2c(=O)[nH]1,225 to 226 °C
14,FC(F)(F)c1cc(Cl)c(-n2cnc(I)n2)c(Cl)c1,130 to 132 °C
15,CC(C)(C)NC(=O)[C@@H]1CCCN1C(=O)[C@@H](O)[C@H](Cc1ccccc1)NC(=O)[C@H](CC(N)=O)NCc1ccccc1,96 to 99 °C
16,COC1=C(OC)CC(C=C(C#N)C(N)=O)C=C1 (stereo not given),170 to 171 °C
17,COC(=O)c1ccc(Cl)c(CN2CCSC2=NC#N)c1Cl,158 °C
18,COc1ccc(C(=O)Nc2ccncc2)c2c1oc1ccc(C(F)(F)F)cc12,259 °C
19,CC(=O)NCCCSc1c(Cc2cccc3ccccc23)sc2c1c(=O)n(C)c(=O)n2CC(C)C,114 to 117 °C
20,CCCNc1c(NCCCOc2cccc(CN3CCCCC3)c2)c(=O)c1=O,158 to 160 °C
21,CCOC(=O)C(O)=CC(=O)c1ccc(C)o1,88 to 92 °C
22,"O=C(O)CCC1(c2ccc(Cl)c(Cl)c2)CCC(=O)NC1=O (single isomer, unassigned; (+))",201 °C
